Test results reported in article PMC10748060, “In Silico and In Vitro Evaluation of the Mechanism of Action of Three VX809-Based Hybrid Derivatives as Correctors of the F508del CFTR Protein” (Pharmaceuticals, 2023).
Entries after “also recorded” stand apart in the source; their conditions may differ.

Columns and labels:
WT NBD1 CFTR domain = WT NBD1 CFTR domain (Homo sapiens, UniProt P13569); assay: Western blot of CFTR single domain WT NBD1 in HEK-t cells; conditions: 3 µM VX661, 3 µM VX445, 2 µM 2a, 7m, 7a, normalised to actin and to untreated domain, mean ± sem
Chain of WT NBD1 CFTR domain (P13569 348-633): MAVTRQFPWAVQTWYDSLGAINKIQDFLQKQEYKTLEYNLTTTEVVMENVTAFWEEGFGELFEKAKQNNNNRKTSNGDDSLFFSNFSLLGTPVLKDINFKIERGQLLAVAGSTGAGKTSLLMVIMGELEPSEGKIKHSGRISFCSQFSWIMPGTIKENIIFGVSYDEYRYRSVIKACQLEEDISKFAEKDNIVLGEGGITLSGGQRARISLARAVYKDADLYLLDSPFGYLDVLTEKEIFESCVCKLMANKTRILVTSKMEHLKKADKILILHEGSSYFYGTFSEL

F508del NBD1 = F508del NBD1 (Homo sapiens, UniProt P13569, DEL508-508); assay: Cycloheximide chase assay of F508del NBD1 in HEK-t cells; conditions: for effect on stability / half-life of F508del NBD1 versus DMSO control: cycloheximide chase, result in words; for F508del NBD1 expression after cycloheximide, relative to time 0: 3 µM VX661/VX445, 2 µM 2a/7m/7a, mean ± sem
Chain of F508del NBD1 (P13569 with tags, fused parts or gaps DEL508-508): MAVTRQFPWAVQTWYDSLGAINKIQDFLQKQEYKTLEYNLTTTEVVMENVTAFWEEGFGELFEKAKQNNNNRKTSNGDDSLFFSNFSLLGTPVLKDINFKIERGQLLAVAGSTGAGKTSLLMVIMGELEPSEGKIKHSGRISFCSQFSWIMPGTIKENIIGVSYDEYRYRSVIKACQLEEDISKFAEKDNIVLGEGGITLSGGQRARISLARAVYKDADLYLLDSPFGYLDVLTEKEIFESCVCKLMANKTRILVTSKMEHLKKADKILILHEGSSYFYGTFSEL
Method: The stability of NBD1-F508del was evaluated according to a previously established procedure [38, 50, 51]. […] Cells were harvested at six different time points (after 0, 1, 2, 4, 6, and 8 h), and samples of whole-cell SDS extracts were subjected to immunoblot analysis.

R domain of CFTR = R domain of CFTR (Homo sapiens, UniProt P13569); assay: Western blot of CFTR R domain in HEK-t cells; conditions: 3 µM VX661, 3 µM VX445, 2 µM 2a, 7m, 7a, normalised to actin and to untreated domain, mean ± sem
Chain of R domain of CFTR (P13569 645-834): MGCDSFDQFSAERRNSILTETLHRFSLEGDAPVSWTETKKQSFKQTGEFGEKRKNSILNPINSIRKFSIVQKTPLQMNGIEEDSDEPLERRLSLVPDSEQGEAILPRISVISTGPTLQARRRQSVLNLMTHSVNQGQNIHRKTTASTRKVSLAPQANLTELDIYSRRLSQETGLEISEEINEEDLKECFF

CFBE41O^− cells = type: cell-based; conditions: 24 h incubation, mean ± SEM
Method: (§1) In both cases, media were supplemented with 10% FBS, 2 mM L-Glutamine, 1% PenStrep (100 U/mL), 1 mg/mL geneticin (G418), and 0.6 mg/mL zeocin as selection agents. Cells were grown under standard CO2 and temperature conditions. Confluence of cell was avoided to prevent loss of differentiation.
(§2) Cells were seeded into 48-well plates at a concentration of 0.3 × 10^5 cells per well. […] After exposition, cells were trypsinised and harvested for toxicity evaluation. To avoid an underestimation of the number of dead cells, the cells that were detached from the plates during exposure to the compounds were collected and considered. For each condition tested, at least four technical replicates were evaluated. In each well, at least 100 cells were considered.

FRT cells = type: cell-based; conditions: 24 h incubation, mean ± SEM
Method: as §1, §2

[1] = Trypan blue cell viability at the working concentrations, all three cell lines; type: cell-based; conditions: human (HEK-t, CFBE41O^−) and rat (FRT), in all three cell lines; for viability at 24 h, 3 µM: at 3 μM
Method: as §1, §2

HEK-t cells = type: cell-based; parameters: TDMax (maximum toxicity): unit not given here; conditions: 24 h incubation, mean ± SEM
Method: as §1, §2

F508del CFTR [2] = target: T1, F508del CFTR (Homo sapiens, UniProt P13569, DEL508-508); parameters: Assessing the Impact of Corrector Combinations on Full-Length F508del CFTR Function; expressed in transfected cells; host or cells: Fisher rat thyroid (FRT) cells; human bronchial epithelial CFBE41o- cells; conditions: Figure 1B; read-out: corrector half-maximal effective concentration (EC50); cited from earlier work
T1 sequence (P13569 with tags, fused parts or gaps DEL508-508): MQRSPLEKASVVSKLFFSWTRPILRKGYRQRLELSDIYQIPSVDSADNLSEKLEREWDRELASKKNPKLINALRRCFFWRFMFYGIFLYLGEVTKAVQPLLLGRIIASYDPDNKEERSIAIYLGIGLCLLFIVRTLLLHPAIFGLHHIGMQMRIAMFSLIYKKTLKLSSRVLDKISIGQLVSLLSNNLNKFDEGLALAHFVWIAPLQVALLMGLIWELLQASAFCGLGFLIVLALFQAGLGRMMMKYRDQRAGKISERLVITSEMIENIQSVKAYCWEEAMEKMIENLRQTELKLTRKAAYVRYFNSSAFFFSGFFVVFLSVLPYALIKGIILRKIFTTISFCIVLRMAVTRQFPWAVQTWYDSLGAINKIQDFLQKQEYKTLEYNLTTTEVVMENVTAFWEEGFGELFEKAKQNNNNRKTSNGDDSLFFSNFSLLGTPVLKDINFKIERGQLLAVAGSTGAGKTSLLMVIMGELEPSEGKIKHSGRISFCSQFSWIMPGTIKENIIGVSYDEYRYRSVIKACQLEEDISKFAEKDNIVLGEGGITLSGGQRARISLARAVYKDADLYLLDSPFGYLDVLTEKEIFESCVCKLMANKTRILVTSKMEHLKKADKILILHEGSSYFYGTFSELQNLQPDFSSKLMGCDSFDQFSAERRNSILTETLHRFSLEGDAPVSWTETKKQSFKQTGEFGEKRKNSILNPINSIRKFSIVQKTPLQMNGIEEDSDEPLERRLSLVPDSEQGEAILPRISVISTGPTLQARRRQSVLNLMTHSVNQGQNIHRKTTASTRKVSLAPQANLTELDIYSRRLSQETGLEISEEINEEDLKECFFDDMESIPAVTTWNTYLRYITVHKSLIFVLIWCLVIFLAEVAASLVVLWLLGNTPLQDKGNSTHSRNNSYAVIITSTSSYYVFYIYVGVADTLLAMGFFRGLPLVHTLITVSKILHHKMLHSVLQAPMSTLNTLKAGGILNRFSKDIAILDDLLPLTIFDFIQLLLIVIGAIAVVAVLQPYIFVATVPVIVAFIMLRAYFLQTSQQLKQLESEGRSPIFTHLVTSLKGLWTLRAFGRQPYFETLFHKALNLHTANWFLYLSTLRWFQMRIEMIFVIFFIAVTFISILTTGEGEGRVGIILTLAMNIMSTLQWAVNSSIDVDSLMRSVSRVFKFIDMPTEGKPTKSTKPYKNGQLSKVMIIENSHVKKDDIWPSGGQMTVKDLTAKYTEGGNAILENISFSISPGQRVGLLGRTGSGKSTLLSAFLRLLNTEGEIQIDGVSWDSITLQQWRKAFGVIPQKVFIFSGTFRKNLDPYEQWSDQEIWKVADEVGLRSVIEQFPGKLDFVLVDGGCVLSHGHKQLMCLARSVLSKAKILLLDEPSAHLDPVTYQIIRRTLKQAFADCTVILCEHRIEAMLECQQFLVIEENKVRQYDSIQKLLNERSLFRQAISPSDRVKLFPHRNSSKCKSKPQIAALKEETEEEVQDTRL

F508del CFTR [3] = target: T1, F508del CFTR; assay: YFP functional assay in CFBE41O^− cells
Method: (§3) The YFP functional assay was applied to assess whether the increase in protein expression induced by treatment with the compounds under investigation correlated with an increase in F508del CFTR channel activity.
(§4) Cells were then incubated with 60 µL PBS plus forskolin (20 µM) and VX-770 (1 µM) for 25 min to maximally stimulate F508del-CFTR. The cells were then transferred to a microplate reader (Tristar2 S, Berthold Technologies, Bad Wildbad, Germany) equipped with 485 nm excitation and 535 nm emission filters.
(§5) Iodide influx was detected as fluorescence quenching as the I^− anion bound to intracellular YFP. After background subtraction and normalisation to the average fluorescence before NaI addition, the initial fluorescence decay rate (QR) was derived by fitting the signal with an exponential function.

F508del CFTR [4] = target: T1, F508del CFTR; assay: YFP functional assay in FRT cells
Method: as §3, §4, §5

MSD1 CFTR domain = MSD1 CFTR domain (Homo sapiens, UniProt P13569); assay: Western blot of CFTR single domain MSD1 in HEK-t cells; conditions: 3 µM VX661, 3 µM VX445, 2 µM 2a, 7m, 7a, normalised to actin and to untreated domain (times of DMSO control), mean ± sem
Chain of MSD1 CFTR domain (P13569 1-388): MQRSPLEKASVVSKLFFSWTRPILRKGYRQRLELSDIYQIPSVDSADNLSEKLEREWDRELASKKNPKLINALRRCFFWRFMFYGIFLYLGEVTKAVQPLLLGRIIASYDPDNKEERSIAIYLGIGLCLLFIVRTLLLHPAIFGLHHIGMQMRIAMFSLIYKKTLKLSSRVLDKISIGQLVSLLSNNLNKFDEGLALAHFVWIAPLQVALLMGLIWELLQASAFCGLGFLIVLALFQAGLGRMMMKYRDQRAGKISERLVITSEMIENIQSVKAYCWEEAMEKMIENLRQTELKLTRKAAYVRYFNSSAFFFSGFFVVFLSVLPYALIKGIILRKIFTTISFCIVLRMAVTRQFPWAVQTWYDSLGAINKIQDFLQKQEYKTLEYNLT

[5] = 3 μM VX661, 3 μM VX445, 2 μM 2a, 7m, 7a, 18 h, forskolin + VX-770 stimulation

| Structure (SMILES) | WT NBD1 expression level (WT NBD1 CFTR domain) | F508del NBD1 expression level, % of the initial level (F508del NBD1; 2 h after cycloheximide) [%] | F508del NBD1 expression level, % of the initial level (F508del NBD1; 4 h after cycloheximide) [%] | F508del NBD1 expression level, % of the initial level (F508del NBD1; 6 h after cycloheximide) [%] | effect on stability / half-life of F508del NBD1 versus DMSO control (F508del NBD1) | F508del NBD1 expression after cycloheximide, relative to time 0 (F508del NBD1; time 0 h) | F508del NBD1 expression after cycloheximide, relative to time 0 (F508del NBD1; time 1 h) | F508del NBD1 expression after cycloheximide, relative to time 0 (F508del NBD1; time 2 h) | F508del NBD1 expression after cycloheximide, relative to time 0 (F508del NBD1; time 4 h) | F508del NBD1 expression after cycloheximide, relative to time 0 (F508del NBD1; time 6 h) | F508del NBD1 expression after cycloheximide, relative to time 0 (F508del NBD1; time 8 h) | R domain expression level (R domain of CFTR) | TD50 (concentration required to achieve half maximum toxicity) (CFBE41O^− cells) [µM] | TDMax (maximum toxicity) (CFBE41O^− cells) [µM] | TD50 (concentration required to achieve half maximum toxicity) (FRT cells) [µM] | TDMax (maximum toxicity) (FRT cells) [µM] | viability at 24 h, 3 µM [1] [%] | TD50 (concentration required to achieve half maximum toxicity) (HEK-t cells) [µM] | other results |
| --- | --- | --- | --- | --- | --- | --- | --- | --- | --- | --- | --- | --- | --- | --- | --- | --- | --- | --- | --- |
| CC(C)(CO)c1cc2cc(NC(=O)C3(c4ccc5c(c4)OC(F)(F)O5)CC3)c(F)cc2n1C[C@@H](O)CO [VX661, tezacaftor] | 1.00± 0.15 | 62 | 45 | 26 | did not prolong the half-life | 1.00 ± 0.02 | 0.73 ± 0.12 | 0.62 ± 0.13 | 0.45 ± 0.11 | 0.26 ± 0.08 | 0.09 ± 0.03 | 1.06± 0.09 | 7.51 ± 2.22 | 15.62 ± 0.06 | 11.09 ± 3.22 | 23.59 ± 0.08 | ≥ 90 | 27.15 ± 17.88 | – |
| CSc1cccc(Nc2nc(-c3cccc(Cl)c3)cs2)c1 [FCG] | – | – | – | – | – | – | – | – | – | – | – | – | – | – | – | – | – | – | EC50 (F508del CFTR [2]): 5.3 µM |
| O=C(c1ccccc1)c1sc(NC(=O)C2(c3ccc4c(c3)OCO4)CC2)nc1-c1ccccc1 [2a] | – | 78 | 63 | 45 | significant increase; also recorded: significantly higher | 1.00 ± 0.08 | 0.87 ± 0.05 | 0.78 ± 0.08 | 0.63 ± 0.03 | 0.45± 0.06 | 0.34 ± 0.03 | – | 10.11 ± 1.80 | 14.44 ± 0.06 | 9.24 ± 2.25 | 20.56 ± 0.06 | – | 2.44 ± 1.03 | increase of YFP initial quenching rate (QR, iodide influx) over the control condition (F508del CFTR [3]; [5]): significantly increased; F508del CFTR channel activity (QR) of double combinations with VX445, compared with VX445 alone (F508del CFTR [3]; result in words): none of the combinations with compound 2a produced an effect greater; F508del CFTR channel activity (QR) of double combinations with VX661, compared with VX661 alone (F508del CFTR [3]; result in words): none of the combinations with compound 2a produced an effect greater; increase of YFP initial quenching rate (QR, iodide influx) over the control condition (F508del CFTR [4]; [5]): significantly increased; F508del CFTR channel activity (QR) of double combinations with VX445, compared with VX445 alone (F508del CFTR [4]; result in words): none of the combinations with compound 2a produced an effect greater; F508del CFTR channel activity (QR) of double combinations with VX661, compared with VX661 alone (F508del CFTR [4]; result in words): none of the combinations with compound 2a produced an effect greater; MSD1 expression level (MSD1 CFTR domain): 1.04 ± 0.05; viability at 24 h, 2 µM ([1]; at 2 μM): ≥ 90%; TDMax (maximum toxicity) (HEK-t cells): 5.78 ± 0.04 |
| Cc1nn(C)cc1S(=O)(=O)NC(=O)c1ccc(-n2ccc(OCC(C)(C)C(F)(F)F)n2)nc1N1C[C@@H](C)CC1(C)C [VX445, elexacaftor] | 1.02 ± 0.18 | 65 | 42 | 27 | did not prolong the half-life | 1.00 ± 0.04 | 0.75 ± 0.12 | 0.65 ± 0.07 | 0.42 ± 0.09 | 0.27 ± 0.05 | 0.14 ± 0.03 | 1.01 ± 0.04 | 11.75 ± 3.42 | 23.60 ± 0.07 | 4.29 ± 0.32 | 10.79 ± 0.01 | ≥ 90 | 9.60 ± 2.25 | – |
